Measured values taken from doi:10.1101/141937v1 (biorxiv, 2017).

Molecular target: T1, EmrE (Escherichia coli, UniProt P23895)
T1 sequence (P23895 1-110): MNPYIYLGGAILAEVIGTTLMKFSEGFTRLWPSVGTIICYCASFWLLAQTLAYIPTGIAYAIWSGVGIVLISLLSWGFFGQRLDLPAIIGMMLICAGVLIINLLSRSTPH
Assay: biochemical

Kd: 70 ± 9 µM
Structure (SMILES): c1ccc([P+](c2ccccc2)(c2ccccc2)c2ccccc2)cc1 [TPP^+]
